Source: US20250017856A1, “CO-FORMULATION AND CO-DELIVERY OF IONIZABLE COLLOID FORMING DRUGS WITH NUCLEIC ACIDS” (THE GOVERNING COUNCIL OF THE UNIVERSITY OF TORONTO, priority 2023, published 2025)

experiment: RNA encapsulation efficiency (modified Quant-iT RiboGreen assay) and loading; type: physicochemical; details: FxNP, siFLuc, DSPC
Source text: (§1) [NT] antisense (SEQ ID NO: 2): [NT] where “d” denotes a DNA base), siFLuc-2 (sense (SEQ ID NO: 3): [NT] antisense (SEQ ID NO: 4): [NT] where “d” denotes a DNA base and “m” indicates a 2'-O-methyl RNA base), sinLuc (sense (SEQ ID NO: 5): [NT] antisense SEQ ID NO: 6): [NT] where “d” denotes a DNA base), […]1 (sense (SEQ ID NO: 7): [NT] antisense (SEQ ID NO: 8): [NT] where “d” denotes a DNA base and “m” indicates a 2'-O-methyl RNA base), siNT (sense (SEQ ID NO: 9): [NT] antisense (SEQ ID NO: 10): [NT] where “d” denotes a DNA base and “m” indicates a 2'-O-methyl RNA base), mFLuc (EZ Cap Firefly Luciferase mRNA (5-moUTP), ApexBio), rRNA or RNA from Torula utilis yeast (T.U. RNA) was diluted in citrate buffer (50 or 25 mM, pH 4), malate buffer (25 mM, pH 4.0) or acetate buffer (25 mM, pH 4.0). A lipid/drug mix concentration of 5.5 mM was used with a total flow rate of 9 mL/min at a 3:1 ratio of aqueous to organic phase. […] After formulation, buffer exchange into PBS or Tris-buffered saline (TBS; pH 8.5) was performed using Amicon Ultra-4 centrifugal filters (molecular weight cut-off 10 kDa). Hydrodynamic diameter, polydispersity index (PDI), and scattering intensity were measured by dynamic light scattering (DLS) using a DynaPro Plate Reader II (Wyatt Technologies). The instrument was configured with a 60 mW 830 nm laser and a detector angle of 158°. A 25 μL sample of each formulation was pipetted into each well of a 384-well plate and measured with 20 acquisitions per sample at 25° C. […] Quant-iT RiboGreen reagent was added, and fluorescence intensity was quantified using a Tecan Infinite […] plate reader.

Row | SMILES | Encapsulation efficiency (%) | Small molecule drug mass % [%] | siRNA mass % [%]
1 | CN1CCN(CC(=O)N=S(=O)(CCCCCCCCCC2Cc3cc(O)ccc3C3CCC4(C)C(O)CCC4C23)CCCC(F)(F)C(F)(F)F)CC1 (stereo not shown) [7i] | 52.8 | 57.2 | 2.7
2 | CC12CCC3c4ccc(O)cc4CC(CCCCCCCCCS(=O)(CCCC(F)(F)C(F)(F)F)=NC(=O)CCN4CCCC4)C3C1CCC2O (stereo not shown) [7j] | 72.0 | 56.2 | 3.7
3 | CN(C)CCC(=O)N=S(=O)(CCCCCCCCCC1Cc2cc(O)ccc2C2CCC3(C)C(O)CCC3C12)CCCC(F)(F)C(F)(F)F (stereo not shown) [7k] | 80.2 | 55.1 | 4.2
4 | CC12CCC3c4ccc(O)cc4CC(CCCCCCCCCS(=O)(CCCC(F)(F)C(F)(F)F)=NC(=O)C[N+](C)(C)C)C3C1CCC2O (stereo not shown) [7l] | 87.6 | 54.9 | 4.5

same assay, conditions: drugs that were not colloid formers

Row | SMILES | siRNA encapsulation (in words)
5 | CN(C)CCCN1c2ccccc2Sc2ccc(Cl)cc21 [chlorpromazine, reference compound] | did not encapsulate siRNA in nanoparticles or encapsulated siRNA at low efficiency
6 | CC[C@H]1CN2CCc3cc(OC)c(OC)cc3[C@@H]2C[C@@H]1C[C@H]1NCCc2cc(OC)c(OC)cc21 [emetine, reference compound] | did not encapsulate siRNA in nanoparticles or encapsulated siRNA at low efficiency
7 | CNCCC=C1c2ccccc2CCc2ccccc21 [nortriptyline, reference compound] | did not encapsulate siRNA in nanoparticles or encapsulated siRNA at low efficiency
8 | CN[C@H]1CC[C@@H](c2ccc(Cl)c(Cl)c2)c2ccccc21 [sertraline, reference compound] | did not encapsulate siRNA in nanoparticles or encapsulated siRNA at low efficiency

experiment: Hydrodynamic diameter and polydispersity index by dynamic light scattering; type: physicochemical; details: FxNP, siFLuc, DSPC
Source text: as §1

Row | SMILES | Hydrodynamic diameter (nm) | PDI
9 | CN1CCN(CC(=O)N=S(=O)(CCCCCCCCCC2Cc3cc(O)ccc3C3CCC4(C)C(O)CCC4C23)CCCC(F)(F)C(F)(F)F)CC1 (stereo not shown) [7i] | 338.6 | 0.218
10 | CC12CCC3c4ccc(O)cc4CC(CCCCCCCCCS(=O)(CCCC(F)(F)C(F)(F)F)=NC(=O)CCN4CCCC4)C3C1CCC2O (stereo not shown) [7j] | 337.1 | 0.225
11 | CN(C)CCC(=O)N=S(=O)(CCCCCCCCCC1Cc2cc(O)ccc2C2CCC3(C)C(O)CCC3C12)CCCC(F)(F)C(F)(F)F (stereo not shown) [7k] | 426.9 | 0.060
12 | CC12CCC3c4ccc(O)cc4CC(CCCCCCCCCS(=O)(CCCC(F)(F)C(F)(F)F)=NC(=O)C[N+](C)(C)C)C3C1CCC2O (stereo not shown) [7l] | 539.2 | Multimodal

experiment: Zeta potential (Malvern Zetasizer); type: physicochemical; details: FxNP, siFLuc, DSPC
Procedure: Zeta potential was measured by diluting FXNPs in phosphate to an ion concentration of 1 mM and using a Malvern Zetasizer Nano ZS instrument.

Row | SMILES | Zeta potential (mV)
13 | CN1CCN(CC(=O)N=S(=O)(CCCCCCCCCC2Cc3cc(O)ccc3C3CCC4(C)C(O)CCC4C23)CCCC(F)(F)C(F)(F)F)CC1 (stereo not shown) [7i] | −3.98
14 | CC12CCC3c4ccc(O)cc4CC(CCCCCCCCCS(=O)(CCCC(F)(F)C(F)(F)F)=NC(=O)CCN4CCCC4)C3C1CCC2O (stereo not shown) [7j] | −3.56
15 | CN(C)CCC(=O)N=S(=O)(CCCCCCCCCC1Cc2cc(O)ccc2C2CCC3(C)C(O)CCC3C12)CCCC(F)(F)C(F)(F)F (stereo not shown) [7k] | −8.53
16 | CC12CCC3c4ccc(O)cc4CC(CCCCCCCCCS(=O)(CCCC(F)(F)C(F)(F)F)=NC(=O)C[N+](C)(C)C)C3C1CCC2O (stereo not shown) [7l] | −2.05

experiment: not given; details: ionizable compound (fulvestrant analog); cited from earlier work

Row | SMILES | pKa
17 | CN1CCN(CC(=O)N=S(=O)(CCCCCCCCCC2Cc3cc(O)ccc3C3CCC4(C)C(O)CCC4C23)CCCC(F)(F)C(F)(F)F)CC1 (stereo not shown) [7i] | 7.4
18 | CC12CCC3c4ccc(O)cc4CC(CCCCCCCCCS(=O)(CCCC(F)(F)C(F)(F)F)=NC(=O)CCN4CCCC4)C3C1CCC2O (stereo not shown) [7j] | 7.6
19 | CN(C)CCC(=O)N=S(=O)(CCCCCCCCCC1Cc2cc(O)ccc2C2CCC3(C)C(O)CCC3C12)CCCC(F)(F)C(F)(F)F (stereo not shown) [7k] | 7.8
